For 12 compounds, TGI and GI50 results are on record in PubChem BioAssay (NCI).

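Five compound concentrations were applied to cells in 96-well plates for 48 hours; endpoints were derived by simple linear interpolation of the resulting dose-response curve. The concentration for 50% growth inhibition is given as GI50. The concentration for full growth arrest is given as TGI.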 A value given as a limit tells only on which side of the number the result lay.

What all share (assay): growth of human tumour cells (NCI), 48 h
Experiment [1] relates to HL-60(TB) leukemia.
For experiment [2], the system named is UACC-257 melanoma.
Experiment [3] concerns NCI-H460 lung.
The test system of experiment [4] is HCT-15 colon.
Experiment [5] relates to COLO 205 colon.
Experiment [6] relates to NCI-H23 lung.
In experiment [7] the test system is M19-MEL melanoma.
In experiment [8] the test system is IGROV1 ovarian.
Experiment [9] concerns XF 498 CNS.
The subject of experiment [10] is MCF7 breast.

For the compound `O=C(/C(=C/c1ccc(O)cc1)c1ccccc1)c1ccccc1`, the TGI in experiment [1] turned out to be 31.6 µM; in experiment [2], 32.9 µM; in experiment [3] it was 38.4 µM; in experiment [4] it was 31.9 µM; in experiment [5] it was 32.8 µM; in experiment [6], 30.7 µM. The TGI worked out at 32.4 µM in [7] and 38.3 µM in experiment [8].

As for `[Cl-].[Gd+3].[O-]/N=C(\c1ccccc1)c1ccccn1.[O-]/N=C(\c1ccccc1)c1ccccn1.[O-]/N=C(\c1ccccc1)c1ccccn1`, the GI50 in experiment [1] is 11.7 µM; in experiment [2], 86.5 µM; in experiment [3], 50.7 µM; in experiment [4], 48.4 µM; in experiment [5] it was 47.2 µM; in experiment [6], greater than 100 µM. The GI50 in experiment [7] was 52.7 µM; in experiment [8], 81.4 µM. Besides, the TGI in experiment [1], in [2], in experiment [3], in [4], in [5] and in experiment [6] was greater than 100 µM throughout. Further, the TGI in experiment [7] and in [8] was greater than 100 µM throughout.

On to `COC(=O)c1sc(=NC(=S)N2CCCCC2)sc1C(=O)OC`, for which the TGI in [1], in [2], in experiment [3], in experiment [4], in experiment [5] and in experiment [7] was greater than 100 µM in each case. The TGI in experiment [8] is greater than 100 µM.

With `c1ccc2c3c([nH]c2c1)C1C2CCCCN2C(c2ccncc2)N1CC3` (stereo not given), the TGI was 98 µM in experiment [9]; 52.5 µM in experiment [1]; greater than 100 µM in [2]; greater than 100 µM in experiment [3]; greater than 100 µM in experiment [4]; greater than 100 µM in experiment [5]. In addition, the TGI in experiment [6] and in [7] was greater than 100 µM throughout.

For the compound `CC(=O)[O-].[Mn+3].[O-]c1ccc(Cl)cc1C=NCCN=Cc1cc(Cl)ccc1[O-]`, the GI50 is 50.7 µM in experiment [1]; greater than 100 µM in experiment [2]; greater than 100 µM in experiment [3]; greater than 100 µM in experiment [4]; greater than 100 µM in experiment [6]; greater than 100 µM in [7]. The GI50 in [8] is 7.99 µM. Further, the TGI in [1], in experiment [2], in [3], in experiment [4], in [6] and in experiment [7] was greater than 100 µM in each case. This compound registered a TGI in experiment [8] of 54.6 µM.

In the case of `O=C1CNN=C(Cn2nc(-c3ccccc3)c3ccccc3c2=O)N1`, the TGI in [1], in experiment [2], in [3], in [4], in experiment [5] and in experiment [6] was greater than 100 µM throughout. For the same compound, the TGI in experiment [7] and in experiment [8] was greater than 100 µM throughout.

On to `CC1CC(C)C(C(O)CC2CC(=O)N(c3ccccc3)C(=O)C2)C(O)C1` (stereo not given), for which the TGI in experiment [1], in [2], in [3], in [5], in [6] and in experiment [7] was greater than 100 µM throughout. In addition, the TGI in experiment [8] was greater than 100 µM.

Turning to `C/C(CC(=O)Nc1cccc([N+](=O)[O-])c1)=N\NC(=O)C[n+]1ccccc1`, the TGI in experiment [9], in experiment [1], in [2], in [3], in experiment [5] and in [6] was greater than 100 µM in each case. Moreover, the TGI in [7] and in experiment [8] was greater than 100 µM throughout.

`COCC1N=C(c2cc(OC)c(OC)c(OC)c2-c2cc3c(cc2[C@H](C)O)OCO3)O[C@H]1c1ccccc1` (stereo not given in full): the TGI in experiment [1] was greater than 10 µM; in experiment [4] it was greater than 100 µM; in experiment [5], 85.2 µM; in experiment [6], greater than 100 µM; in experiment [7] it was greater than 100 µM; in [8], greater than 100 µM.

Consider `C=C(Cn1c2ccccc2c(=O)c2ccccc21)c1ccc(C(=O)Nc2ccccc2N)cc1`, for which the GI50 in experiment [1] was 0.662 µM; in experiment [2] it was greater than 100 µM; in experiment [3], 4.72 µM; in [4], 3.48 µM; in experiment [5], 16.2 µM; in experiment [6], 45.1 µM. For the same compound, the GI50 was greater than 19.8 µM in [8] and greater than 100 µM in experiment [10]. In addition, the TGI in [1] is greater than 26.9 µM; in experiment [2], greater than 100 µM; in experiment [3], greater than 100 µM; in [4], greater than 100 µM; in experiment [5], greater than 100 µM; in [6] it was greater than 100 µM. Also, the TGI in [8] and in [10] was greater than 100 µM in each case.

On to `CCN1CCN(c2nc(NNC(=O)c3ccccc3)nc(N3CCN(C(c4ccccc4)c4ccccc4)CC3)n2)CC1`, for which the GI50 was 1.76 µM in [1]; 1.9 µM in experiment [2]; 2.1 µM in experiment [3]; 2.3 µM in [4]; 1.9 µM in experiment [5]; 3.17 µM in [6]. Further, the GI50 in experiment [8] was 3.09 µM; in experiment [10] it was 1.39 µM. Further, the TGI in experiment [1] came out at 3.99 µM; in [2], 4.25 µM; in experiment [3], 4.63 µM; in experiment [4] it was 5.84 µM; in [5], 3.83 µM; in experiment [6] it was 11.1 µM. Besides, the results for the TGI in experiment [8] and in experiment [10] were 12.8 µM and 3.46 µM, respectively.

In the case of `COc1ccc(-c2cc(-c3ccccc3)nc(NCCNc3ccnc4cc(Cl)ccc34)n2)cc1`, the GI50 in experiment [1] is 1.72 µM; in [2], 1.92 µM; in experiment [3], 1.92 µM; in experiment [4], 0.591 µM; in experiment [5], 1.84 µM; in experiment [6], 1.84 µM. In addition, the GI50 is 1.46 µM in experiment [8] and 1.53 µM in experiment [10]. The TGI in experiment [1] is 3.62 µM; in [2], 3.93 µM; in [3], 3.72 µM; in [4], 2.09 µM; in experiment [5] it was 3.83 µM; in experiment [6], 3.7 µM. Further, the TGI in experiment [8] stood at 3.18 µM; in [10], 3.42 µM.
